Results published in patent US12084451B2, “Compositions and methods for reducing tactile dysfunction, anxiety, and social impairment” (President and Fellows of Harvard College, priority 2018, dated 2024).

Key:
Format in all cases: cell-based
[1] = target: T1, hGABAA α1β3γ2 (Homo sapiens, UniProt P14867+P18507+P28472); experiment: hGABAA IonFlux HT PAM Assay, α1β3γ2; details: for Mean Maximal Effect (% of Control): normalized to baseline peak current induced by EC20 GABA (1 μM) for 2 seconds; for EC50: read-out: Estimated EC50
Description: (§1) Ligand-gated ion channels targeted were hGABAA α1β3γ2 and hGABAA α2β3γ2.
(§2) Electrophysiological assays conducted to profile nine (9) compounds for activities on the on channel targets listed above for Positive Allosteric Modulator (PAM) activities using the IonFlux HT electrophysiological platform.
The parameters measured are described in the Data Analysis section.
(§3) All wells included a final DMSO concentration of 0.33% including all control wells.
(§4) All recordings were obtained from a holding potential of −60 mV. The compound addition sequence that was used for all additions was the same for all assays. […] The process was repeated with the next ascending concentration of test compound (FIG. 1).
(§5) All data were first exported to an Excel compatible data file and then analyzed using Graph Pad Prism software.

[2] = target: T1, hGABAA α1β3γ2; experiment: hGABAA α1β3γ2 IonFlux HT Agonist Assay; design: activation of hGABAA α1β3γ2 ion channel currents / activation: dose or concentration left out as unconfirmed; details: for EC50: agonist activation of channel currents, read-out: Estimated EC50
Description: Ligand-gated ion channel targets were hGABAA α2β3γ2 and hGABAA α1β3γ2. Electrophysiological assays conducted to profile two compounds for agonist activities on hGABAA α2β3γ2 and seven compounds for agonist activities on hGABAA α1β3γ2 using the IonFlux HT electrophysiological platform.
The parameters measured are described in the Data Analysis section. […] Note: The test compounds was applied over two (2) ‘experimental patterns’ in increasing concentrations.
The supplied compound was prepared in DMSO to concentrations that were 300× the final assay concentrations. Aliquots were taken out and diluted 300× into external buffer to give the final assay concentration. At wells included a final DMSO concentration of 0.33% including all control wets.
All recordings were obtained from a holding potential of −60 mV. The compound addition sequence that was used for all additions was the same for all assays. […] Each test concentration of compound was applied for 2 seconds followed by 60 seconds wash. The process was repeated with the next ascending concentration of test compound. The test compounds were applied over two (2) ‘experimental patterns’ in increasing concentrations (FIG. 11).
AM data were first exported to an Excel compatible data file and then analyzed using Graph Pad Prism software.

[3] = target: hGABAA α2β3γ2 (Homo sapiens, UniProt P18507+P28472+P47869); experiment: hGABAA IonFlux HT PAM Assay, α2β3γ2; details: for Mean Maximal Effect (% of Control): normalized to baseline peak current induced by EC20 GABA (0.8 μM) for 2 seconds; for EC50: read-out: Estimated EC50
Description: as §1, §2
The parameters measured are described in the Data Analysis section. […] Open circles represent data that has been excluded from the curve fitting. Where no curve fit was possible, n/c (not calculable) is listed.
as §3, §4, §5

[4] = read-out: Normalized Percentage Activation Mean

Sequence of hGABAA α2β3γ2 (P47869 29-451): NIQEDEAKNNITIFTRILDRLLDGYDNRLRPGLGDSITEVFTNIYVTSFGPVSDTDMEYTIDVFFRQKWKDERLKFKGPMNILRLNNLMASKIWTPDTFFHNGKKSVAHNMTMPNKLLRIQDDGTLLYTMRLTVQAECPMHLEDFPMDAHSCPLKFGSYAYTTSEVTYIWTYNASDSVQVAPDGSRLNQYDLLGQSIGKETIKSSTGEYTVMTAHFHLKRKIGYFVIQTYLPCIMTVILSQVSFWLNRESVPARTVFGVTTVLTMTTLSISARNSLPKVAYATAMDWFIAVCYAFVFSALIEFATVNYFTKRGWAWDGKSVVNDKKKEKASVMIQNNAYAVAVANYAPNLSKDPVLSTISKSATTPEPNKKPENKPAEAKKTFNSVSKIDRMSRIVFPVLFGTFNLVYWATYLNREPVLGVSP
Sequence of hGABAA α2β3γ2 (P28472 26-473): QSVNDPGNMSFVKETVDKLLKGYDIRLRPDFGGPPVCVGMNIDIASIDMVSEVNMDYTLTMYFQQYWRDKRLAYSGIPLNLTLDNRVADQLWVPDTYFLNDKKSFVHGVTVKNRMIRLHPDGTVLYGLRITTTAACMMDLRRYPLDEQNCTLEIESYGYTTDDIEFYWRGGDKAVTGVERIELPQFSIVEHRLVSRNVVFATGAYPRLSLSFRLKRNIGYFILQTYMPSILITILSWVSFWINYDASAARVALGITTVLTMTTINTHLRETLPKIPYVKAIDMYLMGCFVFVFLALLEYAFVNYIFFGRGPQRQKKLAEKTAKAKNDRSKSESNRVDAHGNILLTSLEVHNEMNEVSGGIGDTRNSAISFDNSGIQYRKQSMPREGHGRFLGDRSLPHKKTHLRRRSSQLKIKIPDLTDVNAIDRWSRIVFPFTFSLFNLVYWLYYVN
Sequence of hGABAA α2β3γ2 (P18507 40-475): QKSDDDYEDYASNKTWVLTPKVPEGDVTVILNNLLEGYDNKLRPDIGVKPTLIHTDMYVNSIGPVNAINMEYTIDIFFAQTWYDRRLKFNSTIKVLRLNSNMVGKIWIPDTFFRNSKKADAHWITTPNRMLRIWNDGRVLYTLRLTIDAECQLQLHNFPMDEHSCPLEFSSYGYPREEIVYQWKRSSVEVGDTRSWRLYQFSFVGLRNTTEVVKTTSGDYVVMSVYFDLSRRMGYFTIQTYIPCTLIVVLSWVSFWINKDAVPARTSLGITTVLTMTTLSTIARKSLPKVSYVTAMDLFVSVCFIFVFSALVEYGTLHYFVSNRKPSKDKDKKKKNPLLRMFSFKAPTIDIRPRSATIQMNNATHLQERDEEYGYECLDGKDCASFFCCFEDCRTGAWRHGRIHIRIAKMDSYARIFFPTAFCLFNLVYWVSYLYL
T1 sequence (P14867 28-456): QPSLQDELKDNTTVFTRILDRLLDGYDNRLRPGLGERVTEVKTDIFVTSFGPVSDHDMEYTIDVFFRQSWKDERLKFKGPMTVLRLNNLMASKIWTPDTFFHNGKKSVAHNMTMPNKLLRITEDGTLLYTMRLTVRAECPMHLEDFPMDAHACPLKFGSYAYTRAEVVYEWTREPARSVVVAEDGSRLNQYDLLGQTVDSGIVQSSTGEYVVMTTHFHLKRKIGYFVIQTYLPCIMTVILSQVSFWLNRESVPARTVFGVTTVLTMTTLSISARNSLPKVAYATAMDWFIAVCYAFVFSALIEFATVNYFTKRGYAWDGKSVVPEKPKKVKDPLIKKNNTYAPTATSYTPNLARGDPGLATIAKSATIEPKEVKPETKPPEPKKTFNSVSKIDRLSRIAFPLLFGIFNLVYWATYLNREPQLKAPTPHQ
T1 sequence (P28472 26-473): as the sequence (P28472 26-473) above
T1 sequence (P18507 40-475): as the sequence (P18507 40-475) above

| SMILES | Mean Maximal Effect (% of Control) [1] | EC50 [1] | activation of hGABAA α1β3γ2 ion channel currents [2] | EC50 [2] | activation at 0.3 µM [2, 4] | activation at 1 µM [2, 4] | activation at 3 µM [2, 4] | activation at 10 µM [2, 4] | activation at 30 µM [2, 4] | activation at 100 µM [2, 4] | activation at 300 µM [2, 4] | Mean Maximal Effect (% of Control) [3] | EC50 [3] | other results |
| --- | --- | --- | --- | --- | --- | --- | --- | --- | --- | --- | --- | --- | --- | --- |
| CCN(CCNC)C(=O)CC1c2nccnc2C(=O)N1c1ccc(Cl)cn1 (stereo not drawn) [Compound 5] | 136 % of Control | 3160 nM | did not activate | > 1 mM | 2.54% | 2.02% | 2.28% | 2.45% | 3.08% | 3.75% | 2.7% | 126 % of Control | 8.7 µM | activation at 10000 µM [2, 4]: 2.38% |
| Cc1ccc(-c2nc3ccc(C)cn3c2CC(=O)N(C)C)cc1 [Zolpidem] | 331 % of Control | – | – | – | – | – | – | – | – | – | – | 304 % of Control | – | (%) Control mean ([1]; 0.001 μM + EC20 GABA): 110.7 % Control; (%) Control n1 ([1]; 0.001 μM + EC20 GABA): 116.2 % Control; (%) Control n2 ([1]; 0.001 μM + EC20 GABA): 105.2 % Control; (%) Control mean ([1]; 0.01 μM + EC20 GABA): 141.9 % Control; (%) Control n1 ([1]; 0.01 μM + EC20 GABA): 144.3 % Control; (%) Control n2 ([1]; 0.01 μM + EC20 GABA): 139.4 % Control; (%) Control mean ([1]; 0.1 μM + EC20 GABA): 267.3 % Control; (%) Control n1 ([1]; 0.1 μM + EC20 GABA): 278.5 % Control; (%) Control n2 ([1]; 0.1 μM + EC20 GABA): 256.1 % Control; (%) Control mean ([1]; 1 μM + EC20 GABA): 292.4 % Control; (%) Control n1 ([1]; 1 μM + EC20 GABA): 294.8 % Control; (%) Control n2 ([1]; 1 μM + EC20 GABA): 290.1 % Control; (%) Control mean ([1]; 10 μM + EC20 GABA): 318.1 % Control; (%) Control n1 ([1]; 10 μM + EC20 GABA): 326.1 % Control; (%) Control n2 ([1]; 10 μM + EC20 GABA): 310.1 % Control; (%) Control mean ([1]; 100 μM + EC20 GABA): 330.6 % Control; (%) Control n1 ([1]; 100 μM + EC20 GABA): 349.7 % Control; (%) Control n2 ([1]; 100 μM + EC20 GABA): 311.6 % Control |
| CNCCN(C)C(=O)Cc1c(-c2ccc(C)cc2)nc2ccc(C)cn12 [Compound 1] | 282 % of Control | 654 nM | did not activate | > 1 mM | 1.64% | 1.39% | 2.34% | 6.52% | 4.78% | 6.97% | 7.15% | 181 % of Control | 3 µM | activation [2, 4]: 4.98% |
